Test results: patent publication EP0171968A1, “Use of a phospholipid derivative” (Takeda Chemical Industries, Ltd., priority 1984, dated 1986)
Converted amounts (≈) assume the structure as drawn.

Assays:
S 180 cells [1] = assay: Activity toward mice bearing the Sarcoma 180 tumor (subcutaneous transplant, tumor weight); format: in vivo, ICR mice; conditions: 25 mg/kg injected into the tumor every four days from the 7th day, four times; for Proliferation inhibition ratio (%): 24th day, against control group; for Weight of tumor: measured on the 24th day
Experimental: ICR mice (male, 8-week-old, a group consisting of 5 mice), as divided into two groups, were transplanted subcutaneously with 1 x 10^6 S 180 cells per mouse, respectively. One group was treated with the drug by injection into the tumor every four days commencing with the 7th day after the transplantation, four times in total. On the 24th day, the average tumor weight for the drug-treated group was measured, and the ratio (the tumor proliferation inhibition ratio) against that for the control group (not treated with the drug) was calculated.

rat platelet = assay: Platelet aggregation; format: cell-based; conditions: concentration of 3 x 10-^5 M
Description: Neither l-0-octadecyl-2-0-(morpholinocarbonyl)glycero-3-phosphocholine nor 3-octadecyloxy-2-(morpholino-carbonyloxy)propyl 2-thiazolioethyl phosphate at a concentration of 3 x 10-^5 M caused platelet aggregation against rat platelet.

S 180 cells [2] = assay: Antitumor effect against mice bearing S 180 tumor (intraperitoneal inoculation, survival); format: in vivo, ICR mice; conditions: 0.3 mg/mouse once a day, three times in total; for T/C (%) (life-span prolongation ratio against the control group): control group average survival 12.2 days; for Number of mice surviving for 50 days: group of five ICR mice inoculated intraperitoneally with 1 x 10^5 S 180 cells
Experimental: ICR mice (a group consisting of five mice) were inoculated intraperitoneally with 1 x 10^5 S 180 cells per mouse, and then'given 0.3 mg/mouse of l-O-octadecyl-2-0-(morpholinocarbonyl)glycero-3-phosphocholine (Compound No. 1) dissolved in physiological saline once a day, three times in total, on the day of the inoculation and on the next day and the second day after the inoculation. The average of the survival days for the control group (consisting of 5 mice) was 12.2 days, whereas the number of surviving' mice in the drug-treated group on the 50th day and the life-span prolongation ratio (T/C) against the control group, are shown in Table 1.
In a similar manner, a test was carried out with 1-O-octadecyl-2-O-methylglycero-3-phosphocholine used as a control drug (A), with the results being shown below.

Meth A cells = assay: Necrotic effect against the Meth A tumor tissue; format: in vivo, Balb/c mice; conditions: given intravenously, 7 days after transplantation, observed after 24 hours
[3] = test system: human myelocytic leukemia cells HL-60; assay: Growth inhibiting effect and differentiation inducing activity on HL-60 (method of R. Gallo et al.); format: cell-based; conditions: HL-60 cells
Experimental: According to the method of R. Gallo et al. described in Blood 54 (3), 713 (1979), the growth inhibiting effect (IG effect)and differentiation inducing activity of 1-0-octadecyl-2-O-(morpholinocarbonyl)glycero-3-phosphocholine against human myelocytic leukemia cells HL-60 were assayed.

Q: `CCCCCCCCCCCCCCCCCCOCC(COP(=O)([O-])OCC[N+](C)(C)C)OC(=O)N1CCCCC1` (centres unmarked) [Drug 2, 1-O-Octadecyl-2-O-(piperidinocarbonyl)glycero-3-phosphocholine] was tested. Which “Proliferation inhibition ratio (%)” value (S 180 cells [1]) did it give?
A: 52.4%

Q: And the “Weight of tumor” value (S 180 cells [1])?
A: 0.71 g

Q: Which results are given for `CCCCCCCCCCCCCCCCCCOCC(COP(=O)([O-])OCC[n+]1ccsc1)OC(=O)N1CCOCC1` (centres unmarked) [Drug 3, 3-Octadecyloxy-2-(morpholinocarbonyloxy)propyl 2-thiazolioethyl phosphate]?
A: Proliferation inhibition ratio (%) (S 180 cells [1]): 73.9%; Weight of tumor (S 180 cells [1]): 0.39 g; caused platelet aggregation against rat platelet (rat platelet): Neither

Q: Which “T/C (%) (life-span prolongation ratio against the control group)” value (S 180 cells [2]) does the source give for `CCCCCCCCCCCCCCCCCCOCC(COP(=O)([O-])OCC[N+](C)(C)C)OC(=O)N1CCOCC1` (stereo not drawn) [Compound 1, l-O-octadecyl-2-0-(morpholinocarbonyl)glycero-3-phosphocholine] here?
A: >336%

Q: And the “Number of mice surviving for 50 days” value (S 180 cells [2])?
A: 2

Q: What about the “change of the tumor tissue (necrosis)” value (Meth A cells; 1.25 mg/kg) of the same compound?
A: necrosis through bleeding

Q: And the differentiation inducing activity ([3]; concentration of 1-2 ug/ml)?
A: mild differentiation inducing activity

Q: And the IC50 ([3]; Homo sapiens, read-out: IG effect on HL-60 (GD50))?
A: 0.6 µg/mL (≈ 0.963 µM)

Q: And the “caused platelet aggregation against rat platelet” value (rat platelet)?
A: Neither

Q: Which “change of the tumor tissue (necrosis)” value (Meth A cells; 25 mg/kg) does the source give for `CCCCCCCCCCCCCCCCCCOCC(COP(=O)([O-])OCC[N+](C)(C)C)OC(=O)N1CCCC1` (centres unmarked) [1-O-octadecyl-2-O-(pyrrolidinocarbonyl)glycero-3-phospho-choline] here?
A: necrosis through bleeding

Q: What does the source list for `CCCCCCCCCCCCCCCCCCOCC(COP(=O)([O-])OCC[N+](C)(C)C)OC` (centres unmarked) [Control drug A, 1-O-octadecyl-2-O-methylglycero-3-phosphocholine, reference compound]?
A: T/C (%) (life-span prolongation ratio against the control group) (S 180 cells [2]): 162%; Number of mice surviving for 50 days (S 180 cells [2]): 0
